Literature values, collected in article PMC11206399, “In Vitro/In Vivo Correlation of Two Extended-Release Cilostazol Formulations” (Pharmaceuticals, 2024).
≈ marks a conversion by molar mass, not a printed value. Blank lines part the entries; values can stand above or below the compound they belong to.

Columns and labels:
[1] = set-up: method as in PMID 4074422
[2] = system: Caco-2 cell monolayer; set-up: method as in PMID 14603510; conditions: Caco-2 cell monolayer model
[3] = set-up: method as in PMID 10702883; conditions: humans, oral 100 mg Cilostazol tablet
[4] = system: platelet aggregation; set-up: method as in doi:10.1111/j.1527-3466.1993.tb00200.x

- water solubility [1]: 3.34 µg/mL (≈ 9.04 µM)
- permeability coefficient [2]: above 1 × 10^−6 cm/s
- increase of AUC of Cilostazol with high-fat breakfast compared with the fasted condition [3]: 25%
- increase of Cmax of Cilostazol with high-fat breakfast compared with the fasted condition [3]: 90%
SMILES: O=C1CCc2cc(OCCCCc3nnnn3C3CCCCC3)ccc2N1 [Cilostazol]

SMILES: O=c1ccc2cc(OCCCCc3nnnn3C3CCCCC3)ccc2[nH]1 [OPC-13015, 3,4-dehydrocilostazol]
- potency of inhibiting platelet aggregation compared with cilostazol [4]: 3 fold

SMILES: O=C1CCc2cc(OCCCCc3nnnn3[C@H]3CC[C@H](O)CC3)ccc2N1 [OPC-13213, 4′-trans-hydroxy-cilostazol]
- fold less potent than Cilostazol (inhibiting platelet aggregation) [4]: 3 fold
